Reference: PubChem BioAssay (NCI)
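Tested at 5 concentrations; 48 h exposure; 96-well plates; endpoints linearly interpolated, else capped at highest concentration. Definition used: TGI = concentration required for complete inhibition of growth.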

Experiments:
Assay in all cases: inhibition of tumour cell growth, NCI panel, 48 h
SK-MEL-5 melanoma = system: SK-MEL-5 melanoma
DU-145 prostate = system: DU-145 prostate
MDA-MB-231 breast = system: MDA-MB-231 breast
HT29 colon = system: HT29 colon
ACHN renal = system: ACHN renal
SNB-19 CNS = system: SNB-19 CNS
SF-295 CNS = system: SF-295 CNS
NCI-H226 lung = system: NCI-H226 lung
NCI-H23 lung = system: NCI-H23 lung
KM12 colon = system: KM12 colon
A549 NSCLC = system: A549 NSCLC
OVCAR-8 ovarian = system: OVCAR-8 ovarian
MDA-MB-435 = system: MDA-MB-435
RXF 393 renal = system: RXF 393 renal
LOX IMVI melanoma = system: LOX IMVI melanoma
OVCAR-5 ovarian = system: OVCAR-5 ovarian
NCI-H522 lung = system: NCI-H522 lung
SF-268 CNS = system: SF-268 CNS
EKVX NSCLC = system: EKVX NSCLC
UACC-62 melanoma = system: UACC-62 melanoma
HCT-116 colon = system: HCT-116 colon
MOLT-4 leukemia = system: MOLT-4 leukemia
OVCAR-4 ovarian = system: OVCAR-4 ovarian
NCI-H460 lung = system: NCI-H460 lung
COLO 205 colon = system: COLO 205 colon
T-47D breast = system: T-47D breast
PC-3 prostate = system: PC-3 prostate
SN12C renal = system: SN12C renal
HCC-2998 colon = system: HCC-2998 colon
CCRF-CEM leukemia = system: CCRF-CEM leukemia
UACC-257 melanoma = system: UACC-257 melanoma
HOP-62 NSCLC = system: HOP-62 NSCLC
TK-10 renal = system: TK-10 renal
IGROV1 ovarian = system: IGROV1 ovarian
U251 CNS = system: U251 CNS
786-0 renal = system: 786-0 renal
SW-620 colon = system: SW-620 colon
MDA-N = system: MDA-N
SK-MEL-2 melanoma = system: SK-MEL-2 melanoma
HS 578T breast = system: HS 578T breast
BT-549 breast = system: BT-549 breast
UO-31 renal = system: UO-31 renal
HCT-15 colon = system: HCT-15 colon
HL-60(TB) leukemia = system: HL-60(TB) leukemia
MCF7 breast = system: MCF7 breast
A498 renal = system: A498 renal
CAKI-1 renal = system: CAKI-1 renal
M14 melanoma = system: M14 melanoma
SK-MEL-28 melanoma = system: SK-MEL-28 melanoma
SK-OV-3 ovarian = system: SK-OV-3 ovarian
HOP-92 NSCLC = system: HOP-92 NSCLC
SR leukemia = system: SR leukemia
RPMI-8226 leukemia = system: RPMI-8226 leukemia
NCI/ADR-RES ovarian = system: NCI/ADR-RES ovarian
K-562 leukemia = system: K-562 leukemia
MALME-3M melanoma = system: MALME-3M melanoma
SF-539 CNS = system: SF-539 CNS
OVCAR-3 ovarian = system: OVCAR-3 ovarian

Measured: TGI

Cc1cc2c(=O)[nH]nc(N)c2c(N)n1
not listed: SF-539 CNS | OVCAR-3 ovarian
> 100 µM: all other assays above

O=C(O)c1cc(N(Cc2ccccc2O)Cc2cc(O)ccc2O)ccc1O
not listed: NCI-H522 lung | CAKI-1 renal
> 100 µM: all other assays above
